In brackets after ≈: the same amount, converted by molar mass. Where two headings read alike, the source gives them in different places.
Tests used:
S. pneumoniae+ GC 4465 = test: MIC, broth microdilution; conditions: Streptococcus pneumoniae
E. coli GC 2231 = test: MIC, broth microdilution; conditions: Escherichia coli
S. epidermidis GC 4935 = test: MIC, broth microdilution; conditions: Staphylococcus epidermidis
S. aureus GC 1131 = test: MIC, broth microdilution; conditions: Staphylococcus aureus
S. typhimurium GC 2172 = test: MIC, broth microdilution; conditions: Salmonella enterica, TYPHIMURIUM
E. coli GC 3226 = test: MIC, broth microdilution; conditions: Escherichia coli
Protocol: Antimicrobial susceptibility testing. The in vitro activities of the antibiotics are determined by the broth microdilution method as recommended by the National Committee for Clinical Laboratory Standards (NCCLS) (1). Mueller-Hinton II broth (MHBII)(BBL Cockeysville, Md.) is the medium employed in the testing procedures. Microtiter plates containing serial dilutions of each antimicrobial agent are inoculated with each organism to yield the appropriate density (10^5 CFU/ml) in a 100 μl final volume. The plates are incubated for 18-22 hours at 35° C. in ambient air.
Representative compounds were first incubated in mouse serum for an hour prior to the in vitro testing against a panel of selected gram-positive and gram-negative bacteria strains. All compounds were also pre-incubated in water for an hour prior to testing as control. Representative compounds of Formula I were incubated in human serum prior to MIC determination.

E. coli GC 2272 = test: MIC, broth microdilution; conditions: Escherichia coli
E. faecalis GC 2267 = test: MIC, broth microdilution; conditions: Enterococcus faecalis
Staph. aureus Smith = test: In vivo activity (oral, iv; ED50) against Staph. aureus Smith in mice
Protocol: Representative examples of compounds of Formula I were tested for the oral efficacy using S. aureus Smith in mice.

E. faecium GC 4556 = test: MIC, broth microdilution; conditions: Enterococcus faecium
S. pneumoniae* GC 4465 = test: MIC, broth microdilution; conditions: Streptococcus pneumoniae
S. aureus GC 1079 = test: MIC, broth microdilution; conditions: Staphylococcus aureus
E. coli GC 2232 = test: MIC, broth microdilution; conditions: Escherichia coli
S. pyogenes GC 4563 = test: MIC, broth microdilution; conditions: Streptococcus pyogenes
c. albicans GC 3066 = test: MIC, broth microdilution
S. aureus GC 6466 = test: MIC, broth microdilution; conditions: Staphylococcus aureus
S. aureus GC 2216 = test: MIC, broth microdilution; conditions: Staphylococcus aureus
E. coli GC 2234 = test: MIC, broth microdilution; conditions: Escherichia coli
E. faecium GC 2243 = test: MIC, broth microdilution; conditions: Enterococcus faecium
S. aureus GC 6335 = test: MIC, broth microdilution; conditions: Staphylococcus aureus

## CCCN(CC(=O)Nc1cc(N(C)C)c2c(c1O)C(=O)C1=C(O)[C@]3(O)C(=O)C(C(N)=O)=C(O)C(N(C)C)C3CC1C2)C(=O)OCc1oc(=O)oc1-c1ccccc1 (stereo in doubt) [Example 110, (2-oxo-5-phenyl-1,3-dioxol-4-yl)methyl 2-{[(7R,10aS)-9-(aminocarbonyl)-4,7-bis(dimethylamino)-1,8,10a,11-tetrahydroxy-10,12-dioxo-5,5a,6,6a,7,10,10a,12-octahydrotetracen-2-yl]amino}-2-oxoethyl(propyl)carbamate]
S. pneumoniae+ GC 4465; pre-incubation in mouse serum
  MIC: 4 µg/mL (≈ 5.06 µM)
S. pneumoniae+ GC 4465; pre-incubation in water
  MIC: 2 µg/mL (≈ 2.53 µM)
E. coli GC 2231; GC2231, pre-incubation in mouse serum
  MIC: 4 µg/mL (≈ 5.06 µM)
E. coli GC 2231; GC2231, pre-incubation in water
  MIC: 8 µg/mL (≈ 10.1 µM)
S. epidermidis GC 4935; GC4935, pre-incubation in mouse serum
  MIC: 4 µg/mL (≈ 5.06 µM)
S. epidermidis GC 4935; GC4935, pre-incubation in water
  MIC: 8 µg/mL (≈ 10.1 µM)
S. aureus GC 1131; GC1131, pre-incubation in mouse serum
  MIC: 2 µg/mL (≈ 2.53 µM)
S. aureus GC 1131; GC1131, pre-incubation in water
  MIC: 4 µg/mL (≈ 5.06 µM)
S. typhimurium GC 2172; pre-incubation in mouse serum
  MIC: 64 µg/mL (≈ 81 µM)
S. typhimurium GC 2172; pre-incubation in water
  MIC: > 64 µg/mL
E. coli GC 3226; GC3226, pre-incubation in mouse serum
  MIC: 2 µg/mL (≈ 2.53 µM)
E. coli GC 3226; GC3226, pre-incubation in water
  MIC: 4 µg/mL (≈ 5.06 µM)
E. coli GC 2272; GC2272, pre-incubation in mouse serum
  MIC: 1 µg/mL (≈ 1.27 µM)
E. coli GC 2272; GC2272, pre-incubation in water
  MIC: 1 µg/mL (≈ 1.27 µM)
E. faecalis GC 2267; GC2267, pre-incubation in mouse serum
  MIC: 8 µg/mL (≈ 10.1 µM)
E. faecalis GC 2267; GC2267, pre-incubation in water
  MIC: 4 µg/mL (≈ 5.06 µM)
Staph. aureus Smith; Staphylococcus aureus, in Mus musculus, po, read-out: ED50 Staph Smith SOD
  ED50: 31.9 mg/kg
Staph. aureus Smith; iv, read-out: ED50 Staph Smith SIV
  ED50: 0.6 mg/kg
E. faecium GC 4556; GC4556, pre-incubation in mouse serum
  MIC: 1 µg/mL (≈ 1.27 µM)
E. faecium GC 4556; GC4556, pre-incubation in water
  MIC: 2 µg/mL (≈ 2.53 µM)
S. pneumoniae* GC 4465; pre-incubation in mouse serum
  MIC: 0.25 µg/mL (≈ 0.317 µM)
S. pneumoniae* GC 4465; pre-incubation in water
  MIC: 0.12 µg/mL (≈ 0.152 µM)
S. aureus GC 1079; GC1079, pre-incubation in mouse serum
  MIC: 16 µg/mL (≈ 20.3 µM)
S. aureus GC 1079; GC1079, pre-incubation in water
  MIC: 16 µg/mL (≈ 20.3 µM)
E. coli GC 2232; GC2232, pre-incubation in mouse serum
  MIC: 1 µg/mL (≈ 1.27 µM)
E. coli GC 2232; GC2232, pre-incubation in water
  MIC: 2 µg/mL (≈ 2.53 µM)
S. pyogenes GC 4563; GC4563, pre-incubation in mouse serum
  MIC: 0.12 µg/mL (≈ 0.152 µM)
S. pyogenes GC 4563; GC4563, pre-incubation in water
  MIC: < 0.06 µg/mL
c. albicans GC 3066; Candida albicans, GC3066
  MIC: > 64 µg/mL
c. albicans GC 3066; pre-incubation in water
  MIC: >64 UG/ML
S. aureus GC 6466; GC6466, pre-incubation in mouse serum
  MIC: 1 µg/mL (≈ 1.27 µM)
S. aureus GC 6466; GC6466, pre-incubation in water
  MIC: 2 µg/mL (≈ 2.53 µM)
S. aureus GC 2216; GC2216, pre-incubation in mouse serum
  MIC: 2 µg/mL (≈ 2.53 µM)
S. aureus GC 2216; GC2216, pre-incubation in water
  MIC: 4 µg/mL (≈ 5.06 µM)
E. coli GC 2234; GC2234, pre-incubation in mouse serum
  MIC: 1 µg/mL (≈ 1.27 µM)
E. coli GC 2234; GC2234, pre-incubation in water
  MIC: 2 µg/mL (≈ 2.53 µM)
E. faecium GC 2243; GC2243, pre-incubation in mouse serum
  MIC: 0.5 µg/mL (≈ 0.633 µM)
E. faecium GC 2243; GC2243, pre-incubation in water
  MIC: 0.5 µg/mL (≈ 0.633 µM)
S. aureus GC 6335; GC6335, pre-incubation in mouse serum
  MIC: 8 µg/mL (≈ 10.1 µM)
S. aureus GC 6335; GC6335, pre-incubation in water
  MIC: 8 µg/mL (≈ 10.1 µM)
